Where two headings read alike, the source gives them in different places.
Assays:
[1] = system: Vero cells
[2] = system: ZIKV-RLuc (Cambodian strain FSS13025); experiment: microbe, parasite or virus in culture; type: cell-based, Zika virus; conditions: for AC50: Zika virus, Vero
[3] = read-out: Log AC50 (M) (converted)

Row | SMILES | AC50 [1] | Log AC50 (M) [1] | CC-v2 (curve class classification v2 of the dose response curve) [2] | Efficacy (difference between neutral response and maximum compound response) [2] | Max Resp (difference between neutral response and compound response for highest compound concentration) [2] | AC50 [2] | AC50 [2, 3]
1 | C[C@H]1O[C@@H](O[C@H]2[C@@H](O)C[C@H](O[C@H]3[C@@H](O)C[C@H](O[C@H]4CC[C@@]5(C)[C@H](CC[C@@H]6[C@@H]5C[C@@H](O)[C@]5(C)[C@@H](C7=CC(=O)OC7)CC[C@]65O)C4)O[C@@H]3C)O[C@@H]2C)C[C@H](O)[C@@H]1O [NCGC00090797-01] | 0.465 µM | -6.3327 M | -1.1 | -107.599 | -98.918 | 4.65e-07 M | 4.65e-07 M
2 | Oc1c(Cl)cc(Cl)c(Cl)c1Cc1c(O)c(Cl)cc(Cl)c1Cl [NCGC00091195-08] | 2.33 µM | -5.6327 M | -1.1 | -99.169 | -99.917 | 2.33e-06 M | 2.33e-06 M
3 | C[C@]12CC[C@@H]3c4ccc(O)cc4CC[C@H]3[C@@H]1CC[C@@H]2O [NCGC00091544-08] | 26.9 µM | -4.5699 M | -2.2 | -64.056 | -67.89 | 2.69e-05 M | 2.69e-05 M
4 | CCCCCCCCCCC(C)(C)C(=O)Nc1c(OC)cc(OC)cc1OC [NCGC00092343-02] | – | -4.4327 M | -3 | -55.755 | -44.379 | 3.69e-05 M | 3.69e-05 M
5 | CCCCCCCCCCCC(CC1OC(=O)C1CCCCCC)OC(=O)C(CC(C)C)NC=O (centres unmarked) [NCGC00095128-04] | 29.3 µM | -4.5327 M | -2.1 | -95.825 | -91.668 | 2.93e-05 M | 2.93e-05 M
6 | O=C1Nc2ccc(Cl)cc2[C@@](C#CC2CC2)(C(F)(F)F)O1 [NCGC00159337-04] | 16.5 µM | -4.7827 M | -2.1 | -93.261 | -95.737 | 1.65e-05 M | 1.65e-05 M
7 | COc1cc([C@@H]2c3cc4c(cc3[C@H](O)[C@H]3COC(=O)[C@@H]23)OCO4)cc(OC)c1OC [NCGC00161923-04] | 2.93 µM | -5.5327 M | -1.2 | -67.755 | -62.284 | 2.93e-06 M | 2.93e-06 M
8 | CCC(=C/[C@H](C)C/C=C/C(C)=C/[C@@H](C)C(=O)[C@@H](C)[C@H](O)[C@@H](C)C/C(C)=C/C(=O)O)/C=C/[C@@H]1OC(=O)C=C[C@@H]1C [NCGC00162440-02] | 0.00476 µM | -8.3224 M | -1.2 | -71.611 | -66.361 | 4.76e-09 M | 4.76e-09 M
9 | CCCCCCCCOc1ccccc1C(=O)Nc1ccc(C(=O)OCC[N+](C)(CC)CC)cc1.[Br-] [NCGC00163507-03] | 20.8 µM | -4.6827 M | -2.4 | -66.096 | -65.496 | 2.08e-05 M | 2.08e-05 M

From publication PMC8765781, “A platform of assays for the discovery of anti-Zika small-molecules with activity in a 3D-bioprinted outer-blood-retina model” (PLoS ONE, 2022)
